Experiments:
Assay in all cases: RBC kinase panel
Format in all cases: biochemical
ALK2/ACVR1 = molecular target: T1, ALK2/ACVR1 (Homo sapiens, UniProt Q04771); conditions: ATP 10 μM, Data1, Data2
T1 construct: purchased Reaction Biology Corporation
Outline: (§1)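 The compound (1 μM) was tested in duplicate against each of 369 kinases of human origin, using 10 μM ATP throughout.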

ASK1/MAP3K5 = molecular target: T2, ASK1/MAP3K5 (Homo sapiens, UniProt Q99683); conditions: ATP 10 μM, Data1, Data2
T2 construct: purchased Reaction Biology Corporation
Outline: as §1

BMPR2 = molecular target: T3, BMPR2 (Homo sapiens, UniProt Q13873); conditions: ATP 10 μM, Data1, Data2
T3 construct: purchased Reaction Biology Corporation
T3 sequence (Q13873 27-1038): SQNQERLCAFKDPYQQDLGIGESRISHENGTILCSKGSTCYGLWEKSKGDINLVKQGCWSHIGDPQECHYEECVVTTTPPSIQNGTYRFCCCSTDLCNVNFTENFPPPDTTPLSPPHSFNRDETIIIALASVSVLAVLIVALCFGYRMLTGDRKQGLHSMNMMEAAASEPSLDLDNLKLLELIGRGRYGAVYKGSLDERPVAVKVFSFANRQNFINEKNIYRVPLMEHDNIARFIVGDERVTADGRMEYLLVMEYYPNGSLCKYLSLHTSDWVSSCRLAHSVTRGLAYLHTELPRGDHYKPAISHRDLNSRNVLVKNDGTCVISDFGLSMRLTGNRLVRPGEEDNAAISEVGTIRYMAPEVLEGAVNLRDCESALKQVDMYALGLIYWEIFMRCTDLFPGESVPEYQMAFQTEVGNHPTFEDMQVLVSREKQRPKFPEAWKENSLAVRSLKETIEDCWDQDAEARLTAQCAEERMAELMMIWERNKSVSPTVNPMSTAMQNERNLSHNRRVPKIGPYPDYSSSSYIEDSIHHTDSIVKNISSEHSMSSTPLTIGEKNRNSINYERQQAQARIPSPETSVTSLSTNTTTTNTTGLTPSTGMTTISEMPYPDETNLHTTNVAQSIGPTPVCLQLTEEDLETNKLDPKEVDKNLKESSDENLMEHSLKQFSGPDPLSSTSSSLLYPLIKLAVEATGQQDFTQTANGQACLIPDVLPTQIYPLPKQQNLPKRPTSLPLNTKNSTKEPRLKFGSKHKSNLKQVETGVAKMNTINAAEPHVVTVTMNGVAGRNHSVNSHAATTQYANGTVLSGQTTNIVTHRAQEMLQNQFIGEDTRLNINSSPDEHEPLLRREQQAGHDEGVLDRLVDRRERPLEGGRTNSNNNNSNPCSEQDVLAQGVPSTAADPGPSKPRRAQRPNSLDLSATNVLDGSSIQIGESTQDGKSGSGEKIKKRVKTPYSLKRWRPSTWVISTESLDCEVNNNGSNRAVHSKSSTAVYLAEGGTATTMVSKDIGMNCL
Outline: as §1

CDK2/cyclin O = molecular target: T4, CDK2/cyclin O (Homo sapiens, UniProt P24941); conditions: ATP 10 μM, Data1, Data2
T4 construct: purchased Reaction Biology Corporation
Outline: as §1

CDK4/cyclin D1 = molecular target: T5, CDK4/cyclin D1 (Homo sapiens, UniProt P11802); conditions: ATP 10 μM, Data1, Data2
T5 construct: purchased Reaction Biology Corporation
Outline: as §1

CK1d = molecular target: T6, CK1d (Homo sapiens, UniProt P48730); conditions: ATP 10 μM, Data1, Data2
T6 construct: purchased Reaction Biology Corporation
Outline: as §1

DAPK2 = molecular target: T7, DAPK2 (Homo sapiens, UniProt Q9UIK4); conditions: ATP 10 μM, Data1, Data2
T7 construct: purchased Reaction Biology Corporation
Outline: as §1

DDR1 = molecular target: T8, DDR1 (Homo sapiens, UniProt Q08345); conditions: ATP 10 μM, Data1, Data2
T8 construct: purchased Reaction Biology Corporation
Outline: as §1

DYRK2 = molecular target: T9, DYRK2 (Homo sapiens, UniProt Q92630); conditions: ATP 10 μM, Data1, Data2
T9 construct: purchased Reaction Biology Corporation
Outline: as §1

EPHA7 = molecular target: T10, EPHA7 (Homo sapiens, UniProt Q15375); conditions: ATP 10 μM, Data1, Data2
T10 construct: purchased Reaction Biology Corporation
T10 sequence (Q15375 28-998): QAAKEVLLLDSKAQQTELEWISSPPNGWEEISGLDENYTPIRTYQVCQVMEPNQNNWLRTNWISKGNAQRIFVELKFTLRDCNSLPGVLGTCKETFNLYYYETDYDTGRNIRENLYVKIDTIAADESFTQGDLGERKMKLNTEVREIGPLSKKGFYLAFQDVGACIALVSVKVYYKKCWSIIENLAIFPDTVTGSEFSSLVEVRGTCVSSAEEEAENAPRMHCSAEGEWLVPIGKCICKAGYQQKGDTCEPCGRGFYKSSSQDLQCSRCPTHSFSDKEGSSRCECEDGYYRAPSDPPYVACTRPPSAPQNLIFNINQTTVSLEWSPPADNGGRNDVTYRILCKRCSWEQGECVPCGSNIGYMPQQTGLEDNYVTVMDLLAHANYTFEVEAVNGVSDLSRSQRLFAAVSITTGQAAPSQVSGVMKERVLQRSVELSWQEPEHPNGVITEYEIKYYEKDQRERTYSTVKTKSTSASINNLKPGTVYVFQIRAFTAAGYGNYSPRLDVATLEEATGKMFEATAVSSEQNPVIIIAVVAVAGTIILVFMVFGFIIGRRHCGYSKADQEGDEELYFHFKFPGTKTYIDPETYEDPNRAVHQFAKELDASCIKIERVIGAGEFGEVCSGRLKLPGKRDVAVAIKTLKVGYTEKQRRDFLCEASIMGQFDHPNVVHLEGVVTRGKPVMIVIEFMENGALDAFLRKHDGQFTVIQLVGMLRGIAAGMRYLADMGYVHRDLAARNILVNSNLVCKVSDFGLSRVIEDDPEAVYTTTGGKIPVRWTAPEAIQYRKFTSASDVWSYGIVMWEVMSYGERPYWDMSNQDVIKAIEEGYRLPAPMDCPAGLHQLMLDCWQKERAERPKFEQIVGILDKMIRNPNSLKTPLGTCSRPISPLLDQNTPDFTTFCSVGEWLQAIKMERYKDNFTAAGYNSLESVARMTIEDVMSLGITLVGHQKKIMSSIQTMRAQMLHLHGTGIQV
Outline: as §1

FMS = molecular target: T11, FMS (Homo sapiens, UniProt P07333); conditions: ATP 10 μM, Data1, Data2
T11 construct: purchased Reaction Biology Corporation
Outline: as §1

FYN = molecular target: T12, FYN (Homo sapiens, UniProt P06241); conditions: ATP 10 μM, Data1, Data2
T12 construct: purchased Reaction Biology Corporation
Outline: as §1

HIPK3 = molecular target: T13, HIPK3 (Homo sapiens, UniProt Q9H422); conditions: ATP 10 μM, Data1, Data2
T13 construct: purchased Reaction Biology Corporation
Outline: as §1

KSR2 = molecular target: T14, KSR2 (Homo sapiens, UniProt Q6VAB6); conditions: ATP 10 μM, Data1, Data2
T14 construct: purchased Reaction Biology Corporation
Outline: as §1

LOK/STK10 = molecular target: T15, LOK/STK10 (Homo sapiens, UniProt O94804); conditions: ATP 10 μM, Data1, Data2
T15 construct: purchased Reaction Biology Corporation
Outline: as §1

MARK3 = molecular target: T16, MARK3 (Homo sapiens, UniProt P27448); conditions: ATP 10 μM, Data1, Data2
T16 construct: purchased Reaction Biology Corporation
Outline: as §1

MRCKa/CDC42BPA = molecular target: T17, MRCKa/CDC42BPA (Homo sapiens, UniProt Q5VT25); conditions: ATP 10 μM, Data1, Data2
T17 construct: purchased Reaction Biology Corporation
Outline: as §1

MYLK3 = molecular target: T18, MYLK3 (Homo sapiens, UniProt Q32MK0); conditions: ATP 10 μM, Data1, Data2
T18 construct: purchased Reaction Biology Corporation
Outline: as §1

NEK11 = molecular target: T19, NEK11 (Homo sapiens, UniProt Q8NG66); conditions: ATP 10 μM, Data1, Data2
T19 construct: purchased Reaction Biology Corporation
T19 sequence (Q8NG66 whole entry): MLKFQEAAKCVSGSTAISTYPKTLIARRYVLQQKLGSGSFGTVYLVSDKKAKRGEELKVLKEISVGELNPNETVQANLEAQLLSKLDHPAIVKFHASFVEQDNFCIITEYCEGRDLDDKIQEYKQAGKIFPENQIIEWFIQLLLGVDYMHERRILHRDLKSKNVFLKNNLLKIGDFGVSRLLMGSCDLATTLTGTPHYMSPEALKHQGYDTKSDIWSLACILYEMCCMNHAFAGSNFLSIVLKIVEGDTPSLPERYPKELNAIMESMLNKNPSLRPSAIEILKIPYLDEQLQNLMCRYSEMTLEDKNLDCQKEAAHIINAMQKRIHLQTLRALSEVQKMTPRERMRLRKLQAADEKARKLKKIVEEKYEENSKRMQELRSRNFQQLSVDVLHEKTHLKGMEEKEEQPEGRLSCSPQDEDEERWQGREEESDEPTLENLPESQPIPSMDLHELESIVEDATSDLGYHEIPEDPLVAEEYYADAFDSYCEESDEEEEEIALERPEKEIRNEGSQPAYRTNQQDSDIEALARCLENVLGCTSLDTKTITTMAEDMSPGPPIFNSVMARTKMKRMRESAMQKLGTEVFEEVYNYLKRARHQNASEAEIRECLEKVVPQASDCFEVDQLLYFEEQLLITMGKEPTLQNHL
Outline: as §1

NEK6 = molecular target: T20, NEK6 (Homo sapiens, UniProt Q9HC98); conditions: ATP 10 μM, Data1, Data2
T20 construct: purchased Reaction Biology Corporation
Outline: as §1

NIM1 = molecular target: T21, NIM1 (Homo sapiens, UniProt Q8IY84); conditions: ATP 10 μM, Data1, Data2
T21 construct: purchased Reaction Biology Corporation
Outline: as §1

PDGFRb = molecular target: T22, PDGFRb (Homo sapiens, UniProt P09619); conditions: ATP 10 μM, Data1, Data2
T22 construct: purchased Reaction Biology Corporation
Outline: as §1

PKAcg = molecular target: T23, PKAcg (Homo sapiens, UniProt P22612); conditions: ATP 10 μM, Data1, Data2
T23 construct: purchased Reaction Biology Corporation
Outline: as §1

PKCa = molecular target: T24, PKCa (Homo sapiens, UniProt P17252); conditions: ATP 10 μM, Data1, Data2
T24 construct: purchased Reaction Biology Corporation
Outline: as §1

PKCiota = molecular target: T25, PKCiota (Homo sapiens, UniProt P41743); conditions: ATP 10 μM, Data1, Data2
T25 construct: purchased Reaction Biology Corporation
Outline: as §1

RSK3 = molecular target: T26, RSK3 (Homo sapiens, UniProt Q15349); conditions: ATP 10 μM, Data1, Data2
T26 construct: purchased Reaction Biology Corporation
Outline: as §1

SIK1 = molecular target: T27, SIK1 (Homo sapiens, UniProt P57059); conditions: ATP 10 μM, Data1, Data2
T27 construct: purchased Reaction Biology Corporation
Outline: as §1

STK32C/YANK3 = molecular target: T28, STK32C/YANK3 (Homo sapiens, UniProt Q86UX6); conditions: ATP 10 μM, Data1, Data2
T28 construct: purchased Reaction Biology Corporation
T28 sequence (Q86UX6 whole entry): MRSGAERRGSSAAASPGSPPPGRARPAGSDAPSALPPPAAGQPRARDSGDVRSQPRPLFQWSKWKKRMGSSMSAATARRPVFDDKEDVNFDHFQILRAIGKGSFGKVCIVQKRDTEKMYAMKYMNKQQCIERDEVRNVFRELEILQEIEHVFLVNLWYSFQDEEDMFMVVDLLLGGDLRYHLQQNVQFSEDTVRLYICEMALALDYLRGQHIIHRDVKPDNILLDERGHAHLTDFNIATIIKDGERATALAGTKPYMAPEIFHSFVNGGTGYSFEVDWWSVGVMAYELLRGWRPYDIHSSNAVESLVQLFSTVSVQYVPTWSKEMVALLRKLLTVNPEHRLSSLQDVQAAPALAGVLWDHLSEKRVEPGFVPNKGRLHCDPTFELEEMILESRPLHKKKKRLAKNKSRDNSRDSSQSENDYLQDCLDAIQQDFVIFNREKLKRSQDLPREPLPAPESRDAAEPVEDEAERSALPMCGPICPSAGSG
Outline: as §1

TRKB = molecular target: T29, TRKB (Homo sapiens, UniProt Q16620)
T29 construct: purchased Reaction Biology Corporation
T29 sequence (Q16620 32-822): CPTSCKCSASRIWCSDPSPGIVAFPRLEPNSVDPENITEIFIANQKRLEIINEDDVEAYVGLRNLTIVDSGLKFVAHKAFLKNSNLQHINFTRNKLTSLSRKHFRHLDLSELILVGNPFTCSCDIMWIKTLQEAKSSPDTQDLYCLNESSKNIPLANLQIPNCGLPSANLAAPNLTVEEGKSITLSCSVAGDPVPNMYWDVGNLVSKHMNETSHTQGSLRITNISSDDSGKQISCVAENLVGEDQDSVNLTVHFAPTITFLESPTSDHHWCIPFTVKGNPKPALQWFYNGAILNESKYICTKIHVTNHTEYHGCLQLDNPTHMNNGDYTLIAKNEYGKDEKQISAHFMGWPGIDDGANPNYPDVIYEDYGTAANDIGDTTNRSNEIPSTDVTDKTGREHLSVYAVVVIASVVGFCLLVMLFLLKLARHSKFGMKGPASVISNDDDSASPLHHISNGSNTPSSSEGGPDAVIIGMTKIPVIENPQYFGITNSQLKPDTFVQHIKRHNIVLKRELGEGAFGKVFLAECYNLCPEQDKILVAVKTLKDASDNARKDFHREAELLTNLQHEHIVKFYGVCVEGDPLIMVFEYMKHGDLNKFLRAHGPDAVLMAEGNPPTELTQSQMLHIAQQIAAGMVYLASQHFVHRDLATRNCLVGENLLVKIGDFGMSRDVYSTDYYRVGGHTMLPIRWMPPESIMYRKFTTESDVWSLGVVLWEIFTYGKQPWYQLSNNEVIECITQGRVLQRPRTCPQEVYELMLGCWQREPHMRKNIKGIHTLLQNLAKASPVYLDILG
Outline: as §1

TYK2 = molecular target: T30, TYK2 (Homo sapiens, UniProt P29597); conditions: ATP 10 μM, Data1, Data2
T30 construct: purchased Reaction Biology Corporation
T30 sequence (P29597 whole entry): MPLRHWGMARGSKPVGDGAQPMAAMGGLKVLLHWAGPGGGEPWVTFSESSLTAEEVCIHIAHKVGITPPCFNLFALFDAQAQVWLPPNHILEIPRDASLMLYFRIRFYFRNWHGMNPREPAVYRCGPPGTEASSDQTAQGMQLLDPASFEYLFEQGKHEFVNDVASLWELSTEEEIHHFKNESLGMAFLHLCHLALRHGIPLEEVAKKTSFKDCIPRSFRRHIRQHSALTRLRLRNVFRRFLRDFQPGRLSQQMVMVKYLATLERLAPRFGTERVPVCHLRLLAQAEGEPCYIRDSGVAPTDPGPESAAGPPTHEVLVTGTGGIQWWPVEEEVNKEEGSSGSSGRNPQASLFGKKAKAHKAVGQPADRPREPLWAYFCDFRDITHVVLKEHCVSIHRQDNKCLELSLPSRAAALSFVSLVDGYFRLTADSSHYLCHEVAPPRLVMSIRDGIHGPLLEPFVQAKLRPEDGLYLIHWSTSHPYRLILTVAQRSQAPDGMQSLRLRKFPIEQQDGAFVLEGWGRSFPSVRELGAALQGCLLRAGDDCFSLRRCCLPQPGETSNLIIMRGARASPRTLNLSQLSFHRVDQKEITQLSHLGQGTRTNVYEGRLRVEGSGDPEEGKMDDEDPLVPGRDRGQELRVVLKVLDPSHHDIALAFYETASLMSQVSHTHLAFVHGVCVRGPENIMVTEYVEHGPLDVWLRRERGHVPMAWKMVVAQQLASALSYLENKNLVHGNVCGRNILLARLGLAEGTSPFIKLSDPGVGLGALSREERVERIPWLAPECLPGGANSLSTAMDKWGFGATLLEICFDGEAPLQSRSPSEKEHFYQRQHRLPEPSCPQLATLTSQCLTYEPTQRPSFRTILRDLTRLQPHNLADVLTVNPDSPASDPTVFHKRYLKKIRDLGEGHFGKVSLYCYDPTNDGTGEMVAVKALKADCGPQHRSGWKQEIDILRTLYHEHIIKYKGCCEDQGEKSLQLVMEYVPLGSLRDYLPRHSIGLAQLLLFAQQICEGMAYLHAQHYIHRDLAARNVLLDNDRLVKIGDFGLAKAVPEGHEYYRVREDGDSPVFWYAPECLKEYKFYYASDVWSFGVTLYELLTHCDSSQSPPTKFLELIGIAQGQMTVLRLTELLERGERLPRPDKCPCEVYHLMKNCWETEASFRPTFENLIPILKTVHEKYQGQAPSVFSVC
Outline: as §1

VRK1 = molecular target: T31, VRK1 (Homo sapiens, UniProt Q99986); conditions: ATP 10 μM, Data1, Data2
T31 construct: purchased Reaction Biology Corporation
Outline: as §1

YSK4/MAP3K19 = molecular target: T32, YSK4/MAP3K19 (Homo sapiens, UniProt Q56UN5); conditions: ATP 10 μM, Data1, Data2
T32 construct: purchased Reaction Biology Corporation
Outline: as §1

p70S6Kb/RPS6KB2 = molecular target: T33, p70S6Kb/RPS6KB2 (Homo sapiens, UniProt Q9UBS0); conditions: ATP 10 μM, Data1, Data2
T33 construct: purchased Reaction Biology Corporation
Outline: as §1

CC(=O)Nc1nc2ccc(-c3cnc(C)c(NC(=O)OC4CCCCC4)c3)cc2s1 [PK68, cyclohexyl (5-(2-acetamidobenzo[d]thiazol-6-yl)-2-methylpyridin-3-yl)carbamate]
Activity% (ALK2/ACVR1; 1 μM): 101.72% | activity at 1 µM (ALK2/ACVR1): 103% | Activity% (ASK1/MAP3K5; 1 μM): 93.46% | activity at 1 µM (ASK1/MAP3K5): 95.2% | Activity% (BMPR2; 1 μM): 95.12% | activity at 1 µM (BMPR2): 95.5% | Activity% (CDK2/cyclin O; 1 μM): 98.77% | activity at 1 µM (CDK2/cyclin O): 99.8% | Activity% (CDK4/cyclin D1; 1 μM): 88.58% | activity at 1 µM (CDK4/cyclin D1): 88.8% | Activity% (CK1d; 1 μM): 103.42% | activity at 1 µM (CK1d): 105% | Activity% (DAPK2; 1 μM): 107.36% | activity at 1 µM (DAPK2): 109% | Activity% (DDR1; 1 μM): 80.91% | activity at 1 µM (DDR1): 81.7% | Activity% (DYRK2; 1 μM): 85.35% | activity at 1 µM (DYRK2): 86.3% | Activity% (EPHA7; 1 μM): 85.80% | activity at 1 µM (EPHA7): 86.9% | Activity% (FMS; 1 μM): 71.06% | activity at 1 µM (FMS): 71.1% | Activity% (FYN; 1 μM): 102.88% | activity at 1 µM (FYN): 104% | Activity% (HIPK3; 1 μM): 63.99% | activity at 1 µM (HIPK3): 66.4% | Activity% (KSR2; 1 μM): 99.64% | activity at 1 µM (KSR2): 100% | Activity% (LOK/STK10; 1 μM): 97.50% | activity at 1 µM (LOK/STK10): 97.9% | Activity% (MARK3; 1 μM): 103.78% | activity at 1 µM (MARK3): 104% | Activity% (MRCKa/CDC42BPA; 1 μM): 101.41% | activity at 1 µM (MRCKa/CDC42BPA): 104% | Activity% (MYLK3; 1 μM): 100.10% | activity at 1 µM (MYLK3): 101% | Activity% (NEK11; 1 μM): 81.13% | activity at 1 µM (NEK11): 85.4% | Activity% (NEK6; 1 μM): 93.63% | activity at 1 µM (NEK6): 98.4% | Activity% (NIM1; 1 μM): 96.79% | activity at 1 µM (NIM1): 97.5% | Activity% (PDGFRb; 1 μM): 75.13% | activity at 1 µM (PDGFRb): 76.7% | Activity% (PKAcg; 1 μM): 94.66% | activity at 1 µM (PKAcg): 95.6% | Activity% (PKCa; 1 μM): 98.94% | activity at 1 µM (PKCa): 99.5% | Activity% (PKCiota; 1 μM): 92.87% | activity at 1 µM (PKCiota): 97% | Activity% (RSK3; 1 μM): 96.49% | activity at 1 µM (RSK3): 97.6% | Activity% (SIK1; 1 μM): 97.74% | activity at 1 µM (SIK1): 98.4% | Activity% (STK32C/YANK3; 1 μM): 100.29% | activity at 1 µM (STK32C/YANK3): 101% | Activity% (TRKB; 1 μM, ATP 10 μM, Data1, Data2): 41.21% | activity at 1 µM (TRKB; 1 μM, ATP 10 μM, Data1, Data2): 41.2% | inhibition at 1 µM (TRKB; at 1000 nM): > 50% | Activity% (TYK2; 1 μM): 100.62% | activity at 1 µM (TYK2): 106% | Activity% (VRK1; 1 μM): 104.78% | activity at 1 µM (VRK1): 105% | Activity% (YSK4/MAP3K19; 1 μM): 94.66% | activity at 1 µM (YSK4/MAP3K19): 95% | Activity% (p70S6Kb/RPS6KB2; 1 μM): 95.50% | activity at 1 µM (p70S6Kb/RPS6KB2): 98.8%
